Experimental data published in ChEMBL document CHEMBL1149887, “Enantiospecific synthesis and cytotoxicity of 7-(4-methoxyphenyl)-6-phenyl-2,3,8,8a-tetrahydroindolizin-5(1H)-one enantiomers” (Bioorg Med Chem, 2008).

tested on: HCT-116; test: Cytotoxicity against human HCT116 cells; assay type: functional, cell-based

In order of falling IC50:
1. COc1cc2c3c(c4cc(OC)c(OC)cc4c2cc1OC)CN1CCCC1C3 (racemic) [(+/-)-TYLOPHORINE]  670 nM
2. COc1ccc(C2=C(c3ccccc3)C(=O)N3CCC[C@H]3C2)cc1  390 nM
3. COc1ccc(C2=C(c3ccccc3)C(=O)N3CCC[C@@H]3C2)cc1  200 nM
